Assay results reported in patent US10669272B2, “Substituted naphthyridinone compounds useful as T cell activators” (BRISTOL-MYERS SQUIBB COMPANY, priority 2018, dated 2020).
Where two headings read alike, the source gives them in different places.

How the values were obtained:
human DGKα = target: T1, human DGKα (Homo sapiens, UniProt P23743); assay: DGKα LIPGLO assay (extruded liposome substrate), in vitro DGK inhibition; assay type: biochemical; conditions: read-out: DGKa LIPGLO IC50
T1 construct: TVMV protease cleavage site (C); Hexa-His (C); made in house; host or cells: Sf9 insect cells (baculovirus, Bac-to-Bac)
T1 sequence (P23743 with tags, fused parts or gaps): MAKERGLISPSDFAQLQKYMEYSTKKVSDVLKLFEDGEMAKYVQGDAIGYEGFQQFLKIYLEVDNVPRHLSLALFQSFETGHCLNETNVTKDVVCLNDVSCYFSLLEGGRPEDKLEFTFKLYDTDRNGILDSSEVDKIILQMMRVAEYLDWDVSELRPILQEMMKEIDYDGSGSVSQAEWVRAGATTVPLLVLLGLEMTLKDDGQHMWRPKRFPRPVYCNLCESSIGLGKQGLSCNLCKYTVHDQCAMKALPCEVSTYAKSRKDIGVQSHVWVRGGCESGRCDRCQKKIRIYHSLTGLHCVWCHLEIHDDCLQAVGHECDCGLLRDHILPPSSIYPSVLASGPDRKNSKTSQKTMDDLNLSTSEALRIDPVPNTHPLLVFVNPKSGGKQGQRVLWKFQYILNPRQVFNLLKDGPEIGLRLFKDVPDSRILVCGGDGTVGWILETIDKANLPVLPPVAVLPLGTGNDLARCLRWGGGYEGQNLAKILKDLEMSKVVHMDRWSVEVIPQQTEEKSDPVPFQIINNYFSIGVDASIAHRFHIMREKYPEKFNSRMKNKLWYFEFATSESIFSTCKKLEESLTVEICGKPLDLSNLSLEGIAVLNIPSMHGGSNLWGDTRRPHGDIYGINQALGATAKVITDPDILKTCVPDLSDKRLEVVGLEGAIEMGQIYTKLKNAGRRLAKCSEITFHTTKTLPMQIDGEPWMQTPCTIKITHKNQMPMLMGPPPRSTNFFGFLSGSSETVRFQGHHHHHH

Human venous whole blood = assay: Human whole blood IFN-γ assay; assay type: cell-based; conditions: human whole blood, read-out: INFg Whole Blood Normalized Agonist EC50;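 note: blood from healthy donors exposed to compound for 1 h before stimulation with anti-CD3 and anti-CD28 at 1 µg/mL each, IFN-γ quantified in supernatant by AlphaLISA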
Procedure: Human Whole Blood IFN-γ Assay
Human venous whole blood (22.5 μL per well), obtained from healthy donors, was pre-treated with compounds for one hour at 37° C. in a humidified 95% air/5% CO2 incubator. The blood was stimulated with 2.5 μL anti-human CD3 and anti-CD28 mAb at a final concentration of 1 μg/mL each for 24 hours at 37° C. IFN-γ in the supernatants was measured using AlphLISA kit (Cat # AL217).

human DGKζ = target: T2, human DGKζ (Homo sapiens, UniProt Q13574); assay: DGKζ LIPGLO assay (extruded liposome substrate), in vitro DGK inhibition; assay type: biochemical; conditions: read-out: DGKz LIPGLO IC50
T2 construct: TVMV protease cleavage site (C); Hexa-His (C); made in house; host or cells: Sf9 insect cells (baculovirus, Bac-to-Bac)
T2 sequence (Q13574 with tags, fused parts or gaps isoform Q13574-4): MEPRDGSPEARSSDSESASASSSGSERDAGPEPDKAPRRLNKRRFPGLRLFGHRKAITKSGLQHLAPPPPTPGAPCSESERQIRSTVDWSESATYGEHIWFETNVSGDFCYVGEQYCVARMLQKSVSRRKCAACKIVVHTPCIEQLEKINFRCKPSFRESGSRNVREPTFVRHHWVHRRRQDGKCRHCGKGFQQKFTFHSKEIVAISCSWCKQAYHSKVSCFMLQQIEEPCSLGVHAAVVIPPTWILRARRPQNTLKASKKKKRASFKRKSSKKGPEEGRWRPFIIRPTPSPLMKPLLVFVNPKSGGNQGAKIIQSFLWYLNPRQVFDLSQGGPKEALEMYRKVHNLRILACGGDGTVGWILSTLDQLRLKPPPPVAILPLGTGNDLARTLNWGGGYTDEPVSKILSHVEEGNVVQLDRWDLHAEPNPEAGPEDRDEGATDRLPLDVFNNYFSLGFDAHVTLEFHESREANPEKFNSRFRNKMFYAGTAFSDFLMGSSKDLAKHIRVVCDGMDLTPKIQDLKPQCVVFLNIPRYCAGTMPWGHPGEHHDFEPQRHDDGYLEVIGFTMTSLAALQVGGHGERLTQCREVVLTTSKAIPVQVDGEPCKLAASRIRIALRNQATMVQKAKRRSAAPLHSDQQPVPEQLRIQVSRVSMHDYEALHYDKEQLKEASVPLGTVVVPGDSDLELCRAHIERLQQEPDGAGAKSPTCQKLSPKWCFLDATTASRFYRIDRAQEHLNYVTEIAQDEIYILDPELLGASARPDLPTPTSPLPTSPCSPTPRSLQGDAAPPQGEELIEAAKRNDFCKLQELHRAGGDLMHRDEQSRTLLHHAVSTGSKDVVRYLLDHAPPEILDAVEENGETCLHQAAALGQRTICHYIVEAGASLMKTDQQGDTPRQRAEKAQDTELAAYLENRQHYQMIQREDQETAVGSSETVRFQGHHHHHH

[1] = Homo sapiens, 24 h, anti-CD3 plus anti-CD28, 24 hours, 3 μM reference compound = 100% activation
[2] = anti-CD3 plus anti-CD28, 24 hours, 3 μM reference compound = 100% activation
[3] = normalized to 3 μM reference compound with anti-CD3 plus anti-CD28 as 100% activation

C[C@@H]1CN(c2c(C#N)c(=O)n(C)c3ccc(C#N)nc23)CCN1C(c1ccc(F)cc1)c1cccc2c1OC(F)(F)O2 (single isomer, unassigned) [Example 939]
IC50 (human DGKα; DGKα liposome (LIPGLO) assay): 83 µM | EC50 (Human venous whole blood; [1]): 2.6 µM | IC50 (human DGKζ; DGKζ liposome (LIPGLO) assay): 4 µM

C[C@@H]1CN(c2c(C#N)c(=O)n(C)c3ccc(C#N)nc23)CCN1C(c1ccc(F)cc1)c1cccc2c1OC(F)(F)O2 (single isomer, unassigned) [Example 940]
IC50 (human DGKα; DGKα liposome (LIPGLO) assay): 25 µM | EC50 (Human venous whole blood; [2]): 2.2 µM | IC50 (human DGKζ; DGKζ liposome (LIPGLO) assay): 7.2 µM

C[C@@H]1CN(c2c(C#N)c(=O)n(C)c3ccc(C#N)nc23)CCN1C(c1ccc(Cl)cc1)c1ccc2c(c1)OC(F)(F)O2 (single isomer, unassigned) [Example 941]
IC50 (human DGKα; DGKα liposome (LIPGLO) assay): 4.3 µM | EC50 (Human venous whole blood; [1]): 20 µM | IC50 (human DGKζ; DGKζ liposome (LIPGLO) assay): 20 µM

C[C@@H]1CN(c2c(C#N)c(=O)n(C)c3ccc(C#N)nc23)CCN1C(c1ccc(Cl)cc1)c1ccc2c(c1)OC(F)(F)O2 (single isomer, unassigned) [Example 942]
IC50 (human DGKα; DGKα liposome (LIPGLO) assay): 26 µM | EC50 (Human venous whole blood; [2]): 20 µM | IC50 (human DGKζ; DGKζ liposome (LIPGLO) assay): 2.8 µM

Cc1ccc(C(c2ccc(Cl)cc2)N2CCN(c3c(C#N)c(=O)n(C)c4ccc(C#N)nc34)C[C@H]2C)cc1 (single isomer, unassigned) [Example 944]
IC50 (human DGKα; DGKα liposome (LIPGLO) assay): 37 µM | EC50 (Human venous whole blood; [2]): 6.7 µM | IC50 (human DGKζ; DGKζ liposome (LIPGLO) assay): 41 µM

Cc1ccc(C(c2ccc(Cl)cc2)N2CCN(c3c(C#N)c(=O)n(C)c4ccc(C#N)nc34)C[C@H]2C)cc1 (single isomer, unassigned) [Example 945]
IC50 (human DGKα; DGKα liposome (LIPGLO) assay): 9.8 µM | EC50 (Human venous whole blood; [2]): 1.6 µM | IC50 (human DGKζ; DGKζ liposome (LIPGLO) assay): 9.3 µM

C[C@@H]1CN(c2c(C#N)c(=O)n(C)c3ccc(C#N)nc23)CCN1C(c1ccc(F)cc1)c1ccc(F)cc1F (single isomer, unassigned) [Example 947]
IC50 (human DGKα; DGKα liposome (LIPGLO) assay): 2 µM | EC50 (Human venous whole blood; [1]): 0.34 µM | IC50 (human DGKζ; DGKζ liposome (LIPGLO) assay): 0.27 µM

C[C@@H]1CN(c2c(C#N)c(=O)n(C)c3ccc(C#N)nc23)CCN1C(c1cccc(F)c1)c1ccc(C(F)(F)F)cn1 (single isomer, unassigned) [Example 948]
IC50 (human DGKα; DGKα liposome (LIPGLO) assay): 0.6 µM | EC50 (Human venous whole blood; [2]): 0.34 µM | IC50 (human DGKζ; DGKζ liposome (LIPGLO) assay): 0.31 µM

C[C@@H]1CN(c2c(C#N)c(=O)n(C)c3ccc(C#N)nc23)CCN1C(c1cccc(F)c1)c1ccc(C(F)(F)F)cn1 (single isomer, unassigned) [Example 949]
IC50 (human DGKα; DGKα liposome (LIPGLO) assay): 6.6 µM | EC50 (Human venous whole blood; [2]): 20 µM | IC50 (human DGKζ; DGKζ liposome (LIPGLO) assay): 1.1 µM

CC(c1c(F)cccc1F)N1CCN(c2c(C#N)c(=O)n(C)c3ccc(C#N)nc23)C[C@H]1C (single isomer, unassigned) [Example 950]
IC50 (human DGKα; DGKα liposome (LIPGLO) assay): 0.21 µM | EC50 (Human venous whole blood; [2]): 3.8 µM | IC50 (human DGKζ; DGKζ liposome (LIPGLO) assay): 0.37 µM

CC(c1c(F)cccc1F)N1CCN(c2c(C#N)c(=O)n(C)c3ccc(C#N)nc23)C[C@H]1C (single isomer, unassigned) [Example 951]
IC50 (human DGKα; DGKα liposome (LIPGLO) assay): 3.7 µM | EC50 (Human venous whole blood; [2]): 20 µM | IC50 (human DGKζ; DGKζ liposome (LIPGLO) assay): 9.8 µM

CC(c1ccc(F)cc1)N1CCN(c2c(C#N)c(=O)n(C)c3ccc(C#N)nc23)C[C@H]1C (single isomer, unassigned) [Example 957]
IC50 (human DGKα; DGKα liposome (LIPGLO) assay): 0.26 µM | EC50 (Human venous whole blood; [2]): 1.7 µM | IC50 (human DGKζ; DGKζ liposome (LIPGLO) assay): 8.6 µM

CC(c1ccc(OC(F)(F)F)cc1)N1CCN(c2c(C#N)c(=O)n(C)c3ccc(C#N)nc23)C[C@H]1C (single isomer, unassigned) [Example 958]
IC50 (human DGKα; DGKα liposome (LIPGLO) assay): 0.49 µM | EC50 (Human venous whole blood; [1]): 20 µM | IC50 (human DGKζ; DGKζ liposome (LIPGLO) assay): 28 µM

CC(c1ccc(F)cc1)N1CCN(c2c(C#N)c(=O)n(C)c3ccc(C#N)nc23)C[C@H]1C (single isomer, unassigned) [Example 959]
IC50 (human DGKα; DGKα liposome (LIPGLO) assay): 2.4 µM | EC50 (Human venous whole blood; [2]): 5.4 µM | IC50 (human DGKζ; DGKζ liposome (LIPGLO) assay): 5.9 µM

CC(c1ccc(C(F)(F)F)cc1)N1CCN(c2c(C#N)c(=O)n(C)c3ccc(C#N)nc23)C[C@H]1C (single isomer, unassigned) [Example 960]
IC50 (human DGKα; DGKα liposome (LIPGLO) assay): 6.7 µM | EC50 (Human venous whole blood; [1]): 20 µM | IC50 (human DGKζ; DGKζ liposome (LIPGLO) assay): 6.6 µM

CC(c1ccc(OC(F)(F)F)cc1)N1CCN(c2c(C#N)c(=O)n(C)c3ccc(C#N)nc23)C[C@H]1C (single isomer, unassigned) [Example 962]
IC50 (human DGKα; DGKα liposome (LIPGLO) assay): 1.5 µM | EC50 (Human venous whole blood; [2]): 20 µM | IC50 (human DGKζ; DGKζ liposome (LIPGLO) assay): > 250 µM

CC(c1ccccn1)N1CCN(c2c(C#N)c(=O)n(C)c3ccc(C#N)nc23)C[C@H]1C (single isomer, unassigned) [Example 963]
IC50 (human DGKα; DGKα liposome (LIPGLO) assay): 1.4 µM | EC50 (Human venous whole blood; [1]): 20 µM | IC50 (human DGKζ; DGKζ liposome (LIPGLO) assay): 180 µM

CC(c1ccccc1C(F)(F)F)N1CCN(c2c(C#N)c(=O)n(C)c3ccc(C#N)nc23)C[C@H]1C (single isomer, unassigned) [Example 966]
IC50 (human DGKα; DGKα liposome (LIPGLO) assay): 61 µM | EC50 (Human venous whole blood; [1]): 20 µM | IC50 (human DGKζ; DGKζ liposome (LIPGLO) assay): > 250 µM

CC(c1ccccc1C(F)(F)F)N1CCN(c2c(C#N)c(=O)n(C)c3ccc(C#N)nc23)C[C@H]1C (single isomer, unassigned) [Example 968]
IC50 (human DGKα; DGKα liposome (LIPGLO) assay): > 250 µM | EC50 (Human venous whole blood; [2]): 20 µM | IC50 (human DGKζ; DGKζ liposome (LIPGLO) assay): > 250 µM

CC(c1ccc(F)cc1F)N1CCN(c2c(C#N)c(=O)n(C)c3ccc(C#N)nc23)C[C@H]1C (single isomer, unassigned) [Example 969]
IC50 (human DGKα; DGKα liposome (LIPGLO) assay): 0.76 µM | EC50 (Human venous whole blood; [2]): 1.3 µM | IC50 (human DGKζ; DGKζ liposome (LIPGLO) assay): 1.2 µM

CC(c1ccc(F)cc1F)N1CCN(c2c(C#N)c(=O)n(C)c3ccc(C#N)nc23)C[C@H]1C (single isomer, unassigned) [Example 970]
IC50 (human DGKα; DGKα liposome (LIPGLO) assay): 0.87 µM | EC50 (Human venous whole blood; [2]): 11 µM | IC50 (human DGKζ; DGKζ liposome (LIPGLO) assay): 28 µM

CC(c1ccc(Br)cc1)N1CCN(c2c(C#N)c(=O)n(C)c3ccc(C#N)nc23)C[C@H]1C (single isomer, unassigned) [Example 974]
IC50 (human DGKα; DGKα liposome (LIPGLO) assay): 1.1 µM | EC50 (Human venous whole blood; [1]): 20 µM | IC50 (human DGKζ; DGKζ liposome (LIPGLO) assay): 7.6 µM

CC(c1ccc(Br)cc1)N1CCN(c2c(C#N)c(=O)n(C)c3ccc(C#N)nc23)C[C@H]1C (single isomer, unassigned) [Example 975]
IC50 (human DGKα; DGKα liposome (LIPGLO) assay): 0.33 µM | EC50 (Human venous whole blood; [2]): 20 µM | IC50 (human DGKζ; DGKζ liposome (LIPGLO) assay): 83 µM

Cc1ccc(C)c(C(C)N2CCN(c3c(C#N)c(=O)n(C)c4ccc(C#N)nc34)C[C@H]2C)c1 (single isomer, unassigned) [Example 976]
IC50 (human DGKα; DGKα liposome (LIPGLO) assay): 17 µM | EC50 (Human venous whole blood; [2]): 20 µM | IC50 (human DGKζ; DGKζ liposome (LIPGLO) assay): 6.4 µM

Cc1ccc(C)c(C(C)N2CCN(c3c(C#N)c(=O)n(C)c4ccc(C#N)nc34)C[C@H]2C)c1 (single isomer, unassigned) [Example 977]
IC50 (human DGKα; DGKα liposome (LIPGLO) assay): 48 µM | EC50 (Human venous whole blood; [2]): 4.9 µM | IC50 (human DGKζ; DGKζ liposome (LIPGLO) assay): 1 µM

CC(c1ccc(Cl)cc1)N1CCN(c2c(C#N)c(=O)n(C)c3ccc(C#N)nc23)C[C@H]1C (single isomer, unassigned) [Example 979]
IC50 (human DGKα; DGKα liposome (LIPGLO) assay): 0.91 µM | EC50 (Human venous whole blood; [1]): 20 µM | IC50 (human DGKζ; DGKζ liposome (LIPGLO) assay): 55 µM

COC(=O)c1cccc(C(C)N2CCN(c3c(C#N)c(=O)n(C)c4ccc(C#N)nc34)C[C@H]2C)c1 (single isomer, unassigned) [Example 982]
IC50 (human DGKα; DGKα liposome (LIPGLO) assay): 8.1 µM | EC50 (Human venous whole blood; [1]): 20 µM | IC50 (human DGKζ; DGKζ liposome (LIPGLO) assay): 1.7 µM

COC(=O)c1cccc(C(C)N2CCN(c3c(C#N)c(=O)n(C)c4ccc(C#N)nc34)C[C@H]2C)c1 (single isomer, unassigned) [Example 983]
IC50 (human DGKα; DGKα liposome (LIPGLO) assay): 3.5 µM | EC50 (Human venous whole blood; [2]): 13 µM | IC50 (human DGKζ; DGKζ liposome (LIPGLO) assay): 7.2 µM

C[C@@H]1CN(c2c(C#N)c(=O)n(C)c3ccc(C#N)nc23)CCN1C(c1ccc(F)cc1)c1cncn1C (single isomer, unassigned) [Example 1018]
IC50 (human DGKα; DGKα liposome (LIPGLO) assay): 81 µM | EC50 (Human venous whole blood; [1]): 20 µM | IC50 (human DGKζ; DGKζ liposome (LIPGLO) assay): 74 µM

C[C@@H]1CN(c2c(C#N)c(=O)n(C)c3ccc(C#N)nc23)CCN1C(c1ccc(F)cc1)c1cncn1C (single isomer, unassigned) [Example 1019]
IC50 (human DGKα; DGKα liposome (LIPGLO) assay): 32 µM | EC50 (Human venous whole blood; [2]): 20 µM | IC50 (human DGKζ; DGKζ liposome (LIPGLO) assay): 5.9 µM

C[C@@H]1CN(c2c(C#N)c(=O)n(C)c3ccc(C#N)nc23)CCN1C(c1ccc(F)cc1)c1nccs1 (single isomer, unassigned) [Example 1024]
IC50 (human DGKα; liposome (LIPGLO) assay): 0.44 µM | EC50 (Human venous whole blood; Homo sapiens, 24 h, normalized to 3 μM reference compound with anti-CD3 plus anti-CD28 as 100% activation): 1.2 µM | IC50 (human DGKζ; liposome (LIPGLO) assay): 2.2 µM

C[C@@H]1CN(c2c(C#N)c(=O)n(C)c3ccc(C#N)nc23)CCN1C(c1ccc(F)cc1)c1nccs1 (single isomer, unassigned) [Example 1025]
IC50 (human DGKα; liposome (LIPGLO) assay): 1.2 µM | EC50 (Human venous whole blood; [3]): 2 µM | IC50 (human DGKζ; liposome (LIPGLO) assay): 19 µM

C[C@@H]1CN(c2c(C#N)c(=O)n(C)c3ccc(C#N)nc23)CCN1C(c1ccc(F)cc1)c1cn(C)cn1 (single isomer, unassigned) [Example 1026]
IC50 (human DGKα; liposome (LIPGLO) assay): 20 µM | EC50 (Human venous whole blood; [3]): 20 µM | IC50 (human DGKζ; liposome (LIPGLO) assay): 65 µM
